Consider 5 compounds from ChEMBL document CHEMBL1158220, “New prenylated quinones from Peperomia galioides” (J Nat Prod, 1996).

Active and inactive are the calls of the source. The calls are words filed in the database; no cut-off is given here.

Holding throughout (assay type): functional, organism-based
Assay [1] concerns Leishmania braziliensis. Briefly: Antiparasitic activity against Leishmania braziliensis assessed as lysis of parasite at 100 ug/mL.
Assay [2] has as its system Trypanosoma cruzi. Briefly: Antiparasitic activity against Trypanosoma cruzi Y trypomastigotes assessed as lysis of parasite after 24 hrs.
The subject of assay [3] is Leishmania donovani. Briefly: Antiparasitic activity against Leishmania donovani assessed as lysis of parasite at 100 ug/mL.
The subject of assay [4] is Leishmania braziliensis. As to the kind of experiment: Antiparasitic activity against Leishmania braziliensis at 25 ug/mL.
In assay [5] the test system is Leishmania donovani. Briefly: Antiparasitic activity against Leishmania donovani at 25 ug/mL.
The test system of assay [6] is Leishmania amazonensis. Briefly: Antiparasitic activity against Leishmania amazonensis at 25 ug/mL.
Assay [7] deals with Leishmania amazonensis. As to the kind of experiment: Antiparasitic activity against Leishmania amazonensis assessed as lysis of parasite at 100 ug/mL.
The test system of assay [8] is Leishmania amazonensis. Briefly: Antiparasitic activity against Leishmania amazonensis assessed as lysis of parasite at 5 ug/mL.
Assay [9] relates to Leishmania donovani. Briefly: Antiparasitic activity against Leishmania donovani assessed as lysis of parasite at 5 ug/mL.
In assay [10] the test system is Leishmania braziliensis. As to the kind of experiment: Antiparasitic activity against Leishmania braziliensis assessed as lysis of parasite at 5 ug/mL.
The test system of assay [11] is Trypanosoma cruzi. As to the kind of experiment: Antiparasitic activity against Trypanosoma cruzi Y trypomastigotes assessed as lysis of parasite at 250 ug/mL after 24 hrs.

`CC(C)=CCC/C(C)=C/CC1=C(O)C(=O)C(C)(CC=C(C)C)CC1=O` (stereo not given): the result in [1], in [3], in assay [4], in assay [5], in assay [6] and in assay [7] was Active. In assay [2], the outcome was inactive.

Consider MEGLUMINE ANTIMONATE, for which the Activity in [1], in [3] and in assay [7] was 40% in each case.

`N=C(N)c1ccc(OCCCCCOc2ccc(C(=N)N)cc2)cc1`: the result in [8], in assay [9] and in assay [10] was Active.

Take `CN(C)c1ccc(C(=C2C=CC(=[N+](C)C)C=C2)c2ccc(N(C)C)cc2)cc1`: the result in assay [11] was Active.

With `CC(C)=CCCC1(C)C=CC2=C(O1)C(=O)C(C)=C(CC=C(C)C)C2=O` (stereo not given), the result in assay [2] was inactive.
